Experimental data as given in patent US7943606B2, “Compositions and methods to control abnormal cell growth” (CanCure Laboratories, LLC, priority 2005, dated 2011).
“And” between values parts separate entries of the source, which are not always exact repeats. Identical values can stand only once.

Legend:
HaCaT keratinocytes = test: Viability of HaCaT keratinocytes; type: cell-based
Experimental: To quantify cell death, around the time when significant and characteristic morphological changes took place, cells were pulse-labeled for 10 minutes with [^3H]thymidine to measure DNA activity as described elsewhere [Tomono, M. and Kiss, Z. (1995), “Ethanol enhances the stimulatory effects of insulin and insulin-like growth factor-I on DNA synthesis in NIH 3T3 fibroblasts,” Biochem. Biophys. Res. Commun. 208, 63-67]. Also, cells were collected as suspensions using trypsin, an established method in cell biology, followed by re-plating of cells in fresh tissue culture medium. If no viable cells were obtained after one week in culture, it meant that the cells at the time of re-plating were dead. Survival values obtained with untreated cells were considered 100%. For the determination of relative number of viable cells after treatments, in most cases the MTT assay was used. This calorimetric assay is based on the ability of living cells, but not dead cells, to reduce 3-(4,5-dimethyl thiazol-2-yl)-2,5-diphenyltetrazolium bromide [Carmichael, J, De Graff, W. G., Gazdar, A. F., Minna, J. D. and Mitchell, J. B. (1987), “Evaluation of tetrazolium-based semi-automated calorimetric assay: Assessment of chemosensitivity testing,” Cancer Res. 47, 936-942]. For this assay, cells were plated in 96-well plates, and the MTT assay was performed both in untreated and treated cell cultures. The MTT assay also was performed at the start of treatments to allow assessment of proliferation rates in the control and treated cell cultures.
HaCaT keratinocytes, frequently used immortalized model cells for studying psoriatic keratinocytes, and HTB-157 human fetus lung fibroblasts were cultured in 10% FBS-containing Dulbecco's modified Eagle's medium (DMEM). Cells were distributed in 96-well plates; when cells were 50-60% confluent, the medium was changed for fresh 10% serum-containing medium, followed by incubations for 48 hours in the absence (□) or presence of 50 μM CCDTHT ? , or 100 μM CCDTHT (▪). The MTT assay was used to determine cell viability. […]

AN3CA cells = test: Viability of AN3CA endometrial adenocarcinoma cells (MTT assay); type: cell-based, human; details: 100 μM, 72 hours
Experimental: (§1) To quantify cell death, around the time when significant and characteristic morphological changes took place, cells were pulse-labeled for 10 minutes with [^3H]thymidine to measure DNA activity as described elsewhere [Tomono, M. and Kiss, Z. (1995), “Ethanol enhances the stimulatory effects of insulin and insulin-like growth factor-I on DNA synthesis in NIH 3T3 fibroblasts,” Biochem. Biophys. Res. Commun. 208, 63-67]. Also, cells were collected as suspensions using trypsin, an established method in cell biology, followed by re-plating of cells in fresh tissue culture medium. If no viable cells were obtained after one week in culture, it meant that the cells at the time of re-plating were dead. Survival values obtained with untreated cells were considered 100%. For the determination of relative number of viable cells after treatments, in most cases the MTT assay was used. This calorimetric assay is based on the ability of living cells, but not dead cells, to reduce 3-(4,5-dimethyl thiazol-2-yl)-2,5-diphenyltetrazolium bromide [Carmichael, J, De Graff, W. G., Gazdar, A. F., Minna, J. D. and Mitchell, J. B. (1987), “Evaluation of tetrazolium-based semi-automated calorimetric assay: Assessment of chemosensitivity testing,” Cancer Res. 47, 936-942]. For this assay, cells were plated in 96-well plates, and the MTT assay was performed both in untreated and treated cell cultures. […]

3A-SubE cells = test: Viability of 3A-SubE post crisis placenta cells (MTT assay); type: cell-based; details: 50 μM 48 hours, then 96 hours without CCDTHT
966 SK cells = test: Viability of 966 SK skin fibroblasts (MTT assay); type: cell-based, human; details: 50 and 100 μM, 72 hours
Experimental: as §1

[1] = Toxicological studies in mice; type: in vivo, mouse
Experimental: Accordingly, a well-tolerated dose for CCDTHT in mice is 450 μmole/animal (weighing about 25 g) which corresponds to a dose of 4.6 mg/kg. Therapeutically effective concentrations in humans will exert maximal inhibitory effects on the growth of non-healthy tissues without causing significant toxicity in normal healthy tissues.
Parallel toxicological studies also have been performed with 200-500 μmole/animal doses of the commercially available CCompound1. […] CCompound26, which may have an even better toxicity profile based on in vitro experiments with normal cells, was synthesized much later and has not yet been tested in animal experiments.

Compound: CC[N+](C)(CC)CCOCc1ccc2sc3ccccc3c(=O)c2c1.[I-] [CCDTHT, N,N-diethyl-N-methyl-2-[(9-oxo-9H-thioxanthen-2-yl)methoxy]-ethanaminium iodide]
- reduction in the number of viable HaCaT cells (HaCaT keratinocytes; 50-100 μM, 48 hours, MTT): 85-98% and 85-100%
- inhibition at 100 µM (HaCaT keratinocytes; Homo sapiens, HaCaT, 48 h, read-out: inhibition of DNA synthesis, HaCaT): ~95%
- viable cells after re-plating of treated HaCaT cells (HaCaT keratinocytes; re-plated after treatment, fresh medium for 1 week): no viable cells were found
- decrease in the number of viable cells versus 0.5 mM HC-3, AN3CA (AN3CA cells): much greater decreases in the number of viable cells compared to 0.5 mM HC-3
- reversibility: proliferation in fresh medium after treatment, 3A-SubE (3A-SubE cells): not sufficient to suppress proliferation
- sensitivity compared with HaCaT cells, 966 SK fibroblasts (966 SK cells): significantly less sensitive
- death of animals by day 30 ([1]; 900 μmole (about 9.2 mg/kg)): 40%
- tissue alterations ([1]; 900 μmole (about 9.2 mg/kg)): mild parenchymal degeneration in the heart, focal hypostasis and chronic bronchopneumonia in the lung, and multifocal degeneration of hepatocytes in the liver
- change in the composition of various blood constituents ([1]; single 450 μmole (about 4.6 mg/kg) or 400 μmole daily for 5 consecutive days): did not cause any significant change
- pathological alterations in liver, brain, kidney, heart, spleen, intestine and lung ([1]; single 450 μmole or 400 μmole daily for 5 consecutive days): did not induce significant pathological alterations
